Where a name gives a salt, the structure may show the parent alone.

The values below come from patent US20120088800A1, “2-(SUBSTITUTED) (ARYLMETHYL, ARYLOXY and ARYLTHIO))-N-(SUBSTITUTED PYRIDIN-2-YL)-2-(SUBSTITUTED ARYL) COMPOUNDS AS SUBTYPE-SELECTIVE MODULATORS OF SPHINGOSINE-1-PHOSPHATE-3 (S1P3) RECEPTORS” (ALLERGAN, INC., priority 2009, published 2012).

In one assay the target is T1, S1P3 (Homo sapiens, UniProt Q99500).
T1 construct: expressed in transfected cells
Put plainly: FLIPR calcium assay, cells expressing S1P3 and a G-protein. The assay is classed as cell-based. Conditions: for EC50: fluo-4 calcium signal compared to sphingosine 1-phosphate, antagonist mode; for FLIPR (% Antagonism) S1P3: value in parentheses below the EC50, antagonism of sphingosine 1-phosphate signal. The source says: (§1) Novel compounds having this general structure were synthesized and tested for sphingosine 1-phosphate receptor (S1P) activity using the FLIPR assay. Cells expressing the receptor of interest (S1P1, S1P2 or S1P3) and a G-protein (Gqi5 or G16) are loaded with fluo-4, a calcium sensitive dye. After removal of excess dye by washing, the cells are placed in the FLIPR TETRA instrument. Baseline fluorescence readings are taken prior to addition the compound to be tested. Agonists will trigger the receptor to interact with the G-protein, leading to an increase in intracellular calcium. The increase in intracellular calcium causes an increase in the fluorescence of the cells, due to the presence of fluo-4. This fluorescence increase is recorded by the FLIPR TETRA. After the calcium transient signal has decreased towards baseline, the standard agonist sphingosine 1-phosphate is added. If the test compound is an antagonist, an initial calcium signal will not be generated and the antagonist will prevent the generation of a calcium signal from sphingosine 1-phosphate. The level of fluorescence is compared to that of sphingosine 1-phosphate, and the EC50 or IC50 of the compound determined by curve fitting.

Another assay concerns the target T2, S1P1 (Homo sapiens, UniProt P21453).
T2 construct: expressed in transfected cells
Kind of assay: FLIPR calcium assay, cells expressing S1P1 and a G-protein. The assay is classed as cell-based. Conditions: fluo-4 calcium signal compared to sphingosine 1-phosphate.
From the text: as §1

A further assay has as its target T3, S1P2 (Homo sapiens, UniProt O95136).
T3 construct: expressed in transfected cells
Kind of assay: FLIPR calcium assay, cells expressing S1P2 and a G-protein. The assay is classed as cell-based. Conditions: fluo-4 calcium signal compared to sphingosine 1-phosphate.
From the text: as §1

The next assay concerns perfused porcine eyes. Conditions: IOVS 45, 2263, 2004; cited from earlier work.

T3 sequence (O95136 whole entry, species assumed): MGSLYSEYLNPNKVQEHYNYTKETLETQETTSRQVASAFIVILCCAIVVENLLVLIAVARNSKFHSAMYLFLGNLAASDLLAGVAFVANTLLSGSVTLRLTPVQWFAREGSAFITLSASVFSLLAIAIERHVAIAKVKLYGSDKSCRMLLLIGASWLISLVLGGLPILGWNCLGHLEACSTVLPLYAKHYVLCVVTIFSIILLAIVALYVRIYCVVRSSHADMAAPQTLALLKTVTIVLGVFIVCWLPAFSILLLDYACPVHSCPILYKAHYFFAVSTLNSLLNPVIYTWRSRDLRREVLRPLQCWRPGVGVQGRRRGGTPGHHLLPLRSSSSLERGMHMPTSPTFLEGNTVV
T2 sequence (P21453 whole entry, species assumed): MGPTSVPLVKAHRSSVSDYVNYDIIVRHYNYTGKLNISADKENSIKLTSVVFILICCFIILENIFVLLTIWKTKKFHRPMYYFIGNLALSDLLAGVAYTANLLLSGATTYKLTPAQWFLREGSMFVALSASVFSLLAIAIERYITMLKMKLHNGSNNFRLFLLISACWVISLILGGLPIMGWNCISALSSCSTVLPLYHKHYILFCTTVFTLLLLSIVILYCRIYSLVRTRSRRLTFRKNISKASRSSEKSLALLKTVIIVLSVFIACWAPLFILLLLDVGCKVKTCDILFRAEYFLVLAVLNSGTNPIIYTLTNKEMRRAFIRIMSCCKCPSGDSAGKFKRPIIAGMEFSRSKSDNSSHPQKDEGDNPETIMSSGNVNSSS
T1 sequence (Q99500 whole entry, species assumed): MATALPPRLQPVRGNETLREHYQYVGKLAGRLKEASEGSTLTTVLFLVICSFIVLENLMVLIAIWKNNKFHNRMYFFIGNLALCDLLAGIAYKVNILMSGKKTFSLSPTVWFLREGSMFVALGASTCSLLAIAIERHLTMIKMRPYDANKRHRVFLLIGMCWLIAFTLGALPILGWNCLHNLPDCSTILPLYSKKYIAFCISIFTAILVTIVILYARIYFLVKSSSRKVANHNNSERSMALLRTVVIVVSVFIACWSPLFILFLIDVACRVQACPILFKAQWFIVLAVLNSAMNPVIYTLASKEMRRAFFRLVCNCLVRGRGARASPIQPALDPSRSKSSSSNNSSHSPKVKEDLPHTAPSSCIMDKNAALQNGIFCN

As for `O=C(Nc1ccc(Br)cn1)C(Sc1cccc(Cl)c1)c1ccccc1` (stereo not shown) [Example 20, N-(5-bromopyridin-2-yl)-2-(3-chlorophenylthio)-2-phenylacetamide hydrochloride], the half-maximal effective concentration (EC50) (commonly the concentration that produces a half-maximal response) on S1P3 was 166 nM; on S1P1 it was > 8300 nM; at S1P2, > 8300 nM. For the same molecule, the “FLIPR (% Antagonism) S1P3” value on S1P3 is reported as “(97) %”.

On to `O=C(Nc1ccc(Cl)cn1)C(Sc1cccc(Cl)c1)c1ccccc1` (stereo not shown) [Example 21, 2-(3-chlorophenylthio)-N-(5-chloropyridin-2-yl)-2-phenylacetamide hydrochloride], for which the EC50 at S1P3 was 208 nM; at S1P1 it was > 8300 nM; on S1P2, > 8300 nM. In addition, the “FLIPR (% Antagonism) S1P3” value at S1P3 was “(97) %”.

For `O=C(Nc1ccc(Br)cn1)C(Sc1ccc(Cl)cc1)c1ccc(Cl)cc1` (stereo not shown) [Example 22, N-(5-bromopyridin-2-yl)-2-(4-chlorophenyl)-2-(4-chlorophenylthio)acetamide hydrochloride], the EC50 is 104 nM at S1P3, > 8300 nM at S1P1 and > 8300 nM at S1P2. For the same molecule, the “FLIPR (% Antagonism) S1P3” value on S1P3 was “(97) %”.

For `O=C(Nc1ccc(Cl)cn1)C(Sc1ccc(Cl)cc1)c1ccc(Cl)cc1` (stereo not shown) [Example 23, 2-(4-chlorophenyl)-2-(4-chlorophenylthio)-N-(5-chloropyridin-2-yl)acetamide hydrochloride], the EC50 at S1P3 was 173 nM; on S1P1, > 8300 nM; at S1P2, > 8300 nM. Also, on S1P3, the “FLIPR (% Antagonism) S1P3” value is given as “(97) %”.

Take `O=C(Nc1ccc(Cl)cn1)C(Sc1ccc(Br)cc1)c1ccccc1` (stereo not shown) [Example 24, 2-(4-bromophenylthio)-N-(5-chloropyridin-2-yl)-2-phenylacetamide]: the results for the EC50 at S1P3, on S1P1 and at S1P2 were 230 nM, > 8300 nM and > 8300 nM, respectively. For the same molecule, the “FLIPR (% Antagonism) S1P3” value at S1P3 is reported as “(99) %”.

As to `O=C(Nc1ccc(Br)cn1)C(Sc1ccc(Br)cc1)c1ccccc1` (stereo not shown) [Example 25, 2-(4-bromophenylthio)-N-(5-bromopyridin-2-yl)-2-phenylacetamide], the half-maximal effective concentration (EC50) was 286 nM at S1P3, > 8300 nM on S1P1 and > 8300 nM at S1P2. On S1P3, the “FLIPR (% Antagonism) S1P3” value is recorded as “(99) %”.

Turning to `O=C(Nc1ccc(Cl)cn1)C(Sc1ccc(Cl)cc1)c1ccc(F)cc1` (stereo not shown) [Example 26, 2-(4-chlorophenylthio)-N-(5-chloropyridin-2-yl)-2-(4-fluorophenyl)acetamide], the values for the EC50 on S1P3, on S1P1 and on S1P2 were 166 nM, > 8300 nM and > 8300 nM, respectively. Further, on S1P3, the “FLIPR (% Antagonism) S1P3” value was “(102) %”.

On to `O=C(Nc1ccc(Cl)cn1)C(Sc1ccc(Cl)cc1)c1ccccc1` (stereo not shown) [Example 27, 2-(4-chlorophenylthio)-N-(5-chloropyridin-2-yl)-2-phenylacetamide], for which the EC50 is 160 nM on S1P3, > 8300 nM on S1P1 and > 8300 nM on S1P2. On S1P3, the “FLIPR (% Antagonism) S1P3” value is “(101) %”.

On to `O=C(Nc1ccc(I)cn1)C(Sc1ccccc1)c1ccccc1` (stereo not shown) [Example 28, N-(5-iodopyridin-2-yl)-2-phenyl-2-(phenylthio)acetamide], for which the values for the 50% effective concentration (EC50) at S1P3, on S1P1 and on S1P2 were 310 nM, > 8300 nM and > 8300 nM, respectively. For the same molecule, the “FLIPR (% Antagonism) S1P3” value on S1P3 is “(101) %”.

With `O=C(Nc1ccc(Cl)cn1)C(Cc1ccccc1)c1ccccc1` (stereo not shown) [Example 29, N-(5-chloropyridin-2-yl)-2,3-diphenylpropanamide hydrochloride], the EC50 at S1P3 was 198 nM; at S1P1 it was > 8300 nM; on S1P2 it was > 8300 nM. In addition, the “FLIPR (% Antagonism) S1P3” value at S1P3 was “(101) %”.

As to `O=C(Nc1ccc(Br)cn1)C(Cc1ccccc1)c1ccccc1` (stereo not shown) [Example 30, N-(5-bromopyridin-2-yl)-2,3-diphenylpropanamide hydrochloride], the EC50 is 162 nM on S1P3, > 8300 nM at S1P1 and > 8300 nM at S1P2. In addition, on S1P3, the “FLIPR (% Antagonism) S1P3” value is on record as “(100) %”.

As for `Cc1nc(NC(=O)C(Cc2ccccc2)c2ccccc2)ccc1Br` (stereo not shown) [Example 31, N-(5-bromo-6-methylpyridin-2-yl)-2,3-diphenylpropanamide hydrochloride], the concentration giving a half-maximal response (EC50) was 201 nM at S1P3, > 8300 nM at S1P1 and > 8300 nM at S1P2. In addition, the “FLIPR (% Antagonism) S1P3” value at S1P3 is “(100) %”.

Consider `Cc1ccc(NC(=O)C(Cc2ccccc2)c2ccccc2)nc1` (stereo not shown) [Example 32, N-(5-methylpyridin-2-yl)-2,3-diphenylpropanamide hydrochloride], for which the EC50 at S1P3 was 725 nM; at S1P1, > 8300 nM; at S1P2 it was > 8300 nM. Also, the “FLIPR (% Antagonism) S1P3” value on S1P3 is “(99) %”.

As for `O=C(Nc1ccc(Br)cn1)C(c1ccc(Cl)cc1)c1ccc(Cl)cc1` [Example 33, N-(5-bromopyridin-2-yl)-2,2-bis(4-chlorophenyl)acetamide], the 50% effective concentration (EC50) was 1720 nM on S1P3, > 8300 nM on S1P1 and > 8300 nM at S1P2. In addition, the “FLIPR (% Antagonism) S1P3” value at S1P3 is given as “(94) %”.

Turning to `N#Cc1ccc(NC(=O)C(Cc2ccccc2)c2ccccc2)nc1` (stereo not shown) [Example 34, N-(5-cyanopyridin-2-yl)-2,3-diphenylpropanamide hydrochloride], the EC50 is 1500 nM on S1P3, > 8300 nM on S1P1 and > 8300 nM on S1P2. The “FLIPR (% Antagonism) S1P3” value on S1P3 is on record as “(52) %”.

Turning to `CCCCCCCCCCCCC/C=C/[C@@H](O)[C@@H](N)COP(=O)(O)O` [Example S1P, sphingosine 1-phosphate], in the assay on perfused porcine eyes, the “decrease of outflow facility” value was > 30%.
